This assay has as its target Acetylcholinesterase (Electrophorus electricus, UniProt O42275). As to the kind of experiment: Compound was evaluated for inhibitory constant for the electric eel Acetylcholinesterase (AChE).

Acetylcholinesterase, sequence (O42275 whole entry): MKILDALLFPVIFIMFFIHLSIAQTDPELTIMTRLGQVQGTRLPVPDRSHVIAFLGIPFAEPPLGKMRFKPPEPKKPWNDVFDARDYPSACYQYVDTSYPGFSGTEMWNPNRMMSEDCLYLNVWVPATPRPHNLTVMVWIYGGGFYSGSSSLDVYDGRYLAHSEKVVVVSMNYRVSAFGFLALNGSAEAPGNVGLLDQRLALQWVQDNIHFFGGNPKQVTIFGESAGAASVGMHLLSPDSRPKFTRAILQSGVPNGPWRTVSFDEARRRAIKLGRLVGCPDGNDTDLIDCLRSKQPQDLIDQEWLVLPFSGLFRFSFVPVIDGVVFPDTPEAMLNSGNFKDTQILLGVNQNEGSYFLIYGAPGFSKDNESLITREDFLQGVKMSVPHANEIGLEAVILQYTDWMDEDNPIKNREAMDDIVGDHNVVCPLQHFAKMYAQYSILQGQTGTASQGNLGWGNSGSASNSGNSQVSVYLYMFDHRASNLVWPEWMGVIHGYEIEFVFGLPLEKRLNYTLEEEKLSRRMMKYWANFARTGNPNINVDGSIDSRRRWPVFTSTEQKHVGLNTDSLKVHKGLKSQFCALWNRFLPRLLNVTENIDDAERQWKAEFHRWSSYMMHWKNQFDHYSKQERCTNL

For `C1=Cc2nc1c(-c1ccccc1)c1ccc([nH]1)c(-c1ccccc1)c1nc(c(-c3ccccc3)c3ccc([nH]3)c2-c2ccccc2)C=C1`, where the note is “tested as the Zn salt or complex”, the Ki came to 5390 nM.

Compound `Fc1cccc(F)c1-c1c2nc(c(-c3c(F)cccc3F)c3ccc([nH]3)c(-c3c(F)cccc3F)c3ccc([nH]3)c(-c3c(F)cccc3F)c3nc1C=C3)C=C2` registered a Ki of 12 nM.

On to `Fc1ccc(-c2c3nc(c(-c4ccc(F)cc4F)c4ccc([nH]4)c(-c4ccc(F)cc4F)c4ccc([nH]4)c(-c4ccc(F)cc4F)c4nc2C=C4)C=C3)c(F)c1`, for which the Ki was determined as 5 nM.

A word on the Ki: it is the dissociation constant of the complex between target and ligand, obtained from inhibition or displacement.

(Values after ChEMBL document CHEMBL1130833, “Inhibition of electric eel acetylcholinesterase by porphin compounds” (Bioorg Med Chem Lett, 1998).)
